Data as given in US6291247A, “Methods of screening for factors that disrupt neurotrophin conformation and reduce neurotrophin biological activity” (priority 1996, dated 2001).
Bridges are numbered along the chain shown (N, C = ends).

Experiments:
[1] = tested on: p75; experiment: Affinity cross-linking of 125I-NGF to p75 on PC12 cells; format: binding, rat; settings: for Inhibition of p75 Interaction: 0.1 nM 125I-NGF, PC12 cells
Description: The ability of the peptides under study to interfere with binding of NGF to NGF receptors was evaluated by analysis of inhibition of the chemical cross-linking of ^251 I-NGF to the common neurotrophin receptor p75 (Chao, J. Neurobiol. 25:1373-1385 (1994)) and the specific NGF receptor TrkA (Barbacid, J. Neurobiol. 25: 1386-1403 (1994)). Immunoprecipitation and polyacrylamide gel electrphoresis of cross linked receptors allowed identification of both receptors, as shown in FIG. 7A. […] At concentrations of 200 μM, neither R11(l) nor R11(m) were able to inhibit greater than 50% of the observed ^125 I-labelling.
The ability of the peptides derived from the 68-58/108-110 region of NGF to antagonize NGF interaction with the p75 and TrkA receptors was determined The peptides tested were bicyclic (BC) 68-58/108-110, cyclic (C) 68-58/108-110, and linear (L) 68-58/108-110, each of which are illustrated in FIGS. 2 and 5D
Receptor cross-linking studies were performed on PC12 rat pheochromocytoma cells (ATCC CRL 1721; Greene et al., Proc. Natl. Acad. Sci. USA 73: 2424-2432 (1976)) which were maintained in RPMI1640 (Gibco) supplemented with 10% fetal calf serum (Gibco). Cells were harvested by incubation and trituration in Ca^2+ and Mg^2+ free Gey's balanced salt solution, washed and suspended in 10 mM HEPES buffer (pH 7.35) containing 125 mM NaCl, 4.8 mM KCl, 1.3 mM CaCl2, […], 1.2 mM KH2 PO4, 1 g/L sucrose and 1 g/L bovine serum albumin (HEPES Krebs Ringer buffer, HKR buffer) at 10^6 cells/mL. Subsequent procedures were carried out at 4° C. unless otherwise noted.
For receptor crosslinking, ^125 I-NGF was prepared by the method of Sutter et al. (J. Biol. Chem. 254: 5972-5982 (1979)) from NGF isolated from mouse submaxillary gland (as described in Mobley et al., Biochemistry 15:1543 (1976)) obtained from Cedarlane.
[…] Control PC12 cells were incubated in HKR buffer in the presence of ^125 I-NGF only (no NGF peptide).
Receptor proteins were cross-linked with either 0.4 mM bis(sulfosuccinimidyl)suberate (BS^3, Pierce) for TrkA, or a combination of 2 mM […] (EDC) and 2 mM N-hydroxysulfosuccinimide (S-NHS) for p75^NTR as indicated. All cross-linking agents (from Pierce) were dissolved in water and added in 20 μL aliquots and the reaction allowed to proceed for 30 min at 25° C. On completion of the cross-linking reaction, the cells were washed three times in HKR buffer with BSA at 4° C. to remove excess free radiolabelled ligand and reagents. The cells were solubilized in 100 μL SDS sample buffer Samples were separated on a modified Laemmli discontinues acrylamide gel system (Laemmli, Nature 227:680 (1970)) using 4% SDS-PAGE stacking gel and a gradient urea polyacrylamide separating gel ranging from 4.5% acrylamide/18% urea to 7.5% acrylamide/48% urea. The gels were fixed and processed for autoradiography using -70° C. exposure with Kodak XAR film and manual processing (FIG. 7B).
For positive receptor identification, immunoprecipitation studies were performed. Samples of 10^7 cells in 1 mL HKR buffer were cross-linked under the conditions described above, washed in HKR buffer and solubilized in non-denaturing lysis buffer (1% NP40, 10% glycerol, 1 mM phenylmethylsulfonylfluoride, 10 μg/mL leupeptin and 0.5 mM o-vanadate in Tris-buffered saline) (Kaplan et al., Nature 350:1 158-160 (1991)). The solutions were clarified by centrifugation and immunoprecipitated with either mAb 192 (monoclonal antibody for p75; Cedarlane) or rabbit anti-TrkA, which had been raised against a COOH-terminal peptide of TrkA. The ^125 I-NGF cross-linked receptor-antibody complexes were isolated using 50 μL of a 50% solution of rabbit anti-mouse agarose (Sigma; for mAb 192) or protein A-Sepharose (Pharmcia; for anti-Trk) equilibrated in lysis buffer. Immunoprecipitates were washed three times in lysis buffer and the pellets denatured in SDS reducing sample buffer. […]

[2] = tested on: BDNF; settings: Rashid et al. 1995; cited from earlier work
[3] = tested on: NGF dimer; experiment: NGF dimer stability by non-reducing gel electrophoresis; design: species or system mouse
Description: For conformation and dimer integrity studies, 0.1 nM ^125 I-NGF was incubated in the presence or absence of Zn^2+ in HKR buffer for 2 hours at 4° C. in a total volume of 0.1 ml. For crosslinking NGF […], 0.4 mM BS^3 was added to the mixture and incubated for 30 minutes at 25° C. The reaction was quenched with reducing SDS PAGE sample buffer, electrophoresed using a linear 15% acrylamide gel and autoradiographed. To assess the dimeric nature of NGF in the presence of Zn^2+, ^125 I-NGF was electrophoresed in a non-reducing SDS PAGE system as described, autoradiographed, and the labelled proteins excised from the gels and counted. For CD studies, NGF (50 μg/ml) was dissolved in 50 mM Tris-HCl buffer and spectra recorded using a computer controlled Jasco J-600 spectropolarimeter. Samples were acquired in the absence or presence of Zn^2+ (100 μM) at 22° C. in a 2 mm quartz cell averaged over eight scans. Modification of His residues by DEPC was carried out as previously described, where the molar excess of DEPC added and the extent of reaction was determined by evaluating the loss of binding activity of the modified product.

[4] = tested on: TrkA receptor; experiment: NGF-dependent TrkA phosphorylation in PC12 cells, metal ions; format: cell-based, rat
Description: Zn^2+ and/or other additives were allowed to equilibrate with NGF for 2 hours at 4° C. prior to addition of cells. PC12 cells were used at 10^6 cells/ml and incubated with 40 pM NGF for 15 minutes at 37° C. At the conclusion of the reaction, cells were washed, lysed in TBS containing 10% glycerol, 1% Triton X-100, 1 mM PMSF, 10 μg/ml aprotinin, 1 μg/ml leupeptin and 500 μM orthovanadate (lysis buffer, 10^8 cells/ml). The cellular debris was removed by centrifugation and the soluble proteins incubated with an anti-TrkA cytoplasmic domain antibody. Antibody complexes were isolated by incubating with immobilized protein G (Pierce Ultralink; 70 μl of a 50% slurry) for 2 hours at 4° C. The solid phase was washed extensively with lysis buffer and the pellet dissolved in SDS sample buffer. Proteins were resolved using 6% SDS PAGE and Western analysis performed with anti-phosphotyrosine 4G10 (UBI) visualized with ECL (Amersham).

| Molecule | Inhibition of p75 Interaction ([1]; 20 μM peptide) | Inhibition of p75 Interaction ([1]; 200 μM peptide, listed as BC) | Covalent attachment of 125I-NGF to receptor (p75) ([1]; 200 μM, result in words) | Antagonism of BDNF in vitro [2] | Percentage of NGF migrating as a dimer in non-reducing gel electrophoresis [3] | NGF-induced TrkA phosphorylation ([4]; 100 μM, PC12 cells) | Basal TrkA phosphorylation ([4]; no NGF) |
| --- | --- | --- | --- | --- | --- | --- | --- |
| NH2 -Cys-Gly-Ser-Glu-Val-Pro-Asn-Ser-Ala-Arg-Cys-Cys-Val-Cys-OH (H-CGSEVPNSARCCVC-OH; disulfide 1-14, 11-12) [R11, bicyclic peptide of NGF residues 68-58/108-110, two disulfide bonds] | + (indicates less than 50% inhibition) | ++ (indicates greater than 50% inhibition) | effectively prevented the covalent attachment | effective antagonist | – | – | – |
| [Zn+2] [Zn^2+] | – | – | – | – | No change | prevented phosphorylation | no effect on basal TrkA phosphorylation |
